# Laboratory results as given in patent US20240287124A1, “PRODRUGS OF 4'-SUBSTITUTED NUCLEOSIDE REVERSE TRANSCRIPTASE INHIBITORS” (Merck Sharp & Dohme LLC, priority 2023, published 2024).
# Test system: HIV-1 wild-type (R8) virus
# Assay: Viral KINetics in Green cells (VIKING) assay, HIV-1 replication in MT4-GFP reporter cells
# Format: cell-based
# Settings: Human immunodeficiency virus 1, 10% normal human serum, MT4-GFP cells, HIV-1 wild-type (R8); read-out: Viking (10% NHS), IC50
# Method: Antiviral potency of the compounds was determined based on their ability to block HIV-1 replication in a GFP reporter cell line; this assay is referred to as Viral KINetics in Green cells or VIKING assay. HIV-1 replication was monitored using MT4-gag-GFP clone D3 (hereafter designate MT4-GFP) cells, which are MT4 cells modified to harbor a GFP reporter gene, the expression of which is dependent on the HIV-1 proteins tat and rev. (MT4 is a human T-cell line that is particularly sensitive to HIV-1 replication.) HIV-1 infection of MT4-GFP cells results in GFP expression approximately 24 h post-infection. MT4-GFP cells were maintained at 37° C./5% CO2/90% relative humidity in RPMI 1640 supplemented with 10% fetal bovine serum, 100 U/mL penicillin/streptomycin, and […] G418 to maintain the reporter gene. For infections, MT4-GFP cells were placed in the same medium lacking G418 and infected overnight with HIV-1 wild-type (R8) virus at an approximate multiplicity of infection of 0.01 in the same incubation conditions. Cells were then washed and resuspended in RPMI 1640 containing 10% normal human serum at 2×10^5 cells/mL. Compound plates were prepared by dispensing compounds dissolved in DMSO into wells of 384-well poly D lysine-coated plates (0.2 μl/well) using an ECHO acoustic dispenser. Each compound was tested in a 10-point serial 3-fold dilution (typical final concentrations: 4 μM-0.2 nM). Controls included no inhibitor (DMSO only) and a combination of three antiviral agents as a positive control (efavirenz, indinavir, and an integrase strand transfer inhibitor at final concentrations of 4 μM each). Infected cells were added (50 μL/well) to compound plates and were maintained at 37° C./5% CO2/90% relative humidity. Infected cells were quantified at two time points, approximately 48 h and 72 h post-infection, by counting the number of green cells in each well using an Acumen eX3 scanner. The increase in the number of green cells over ˜24 h period gives the reproductive ratio, R, which is calculated by dividing the number of green cells at 72 h over those at 48 h post-infection. The percent inhibition caused by a test compound is calculated using the following formula: […]
# The dose-response curves of each test compound were plotted as % inhibition versus the compound concentration. IC50 values were determined by non-linear 4-parameter fitting of the dose-response curves.
row,Compound,IC50 [nM]
1,"C#C[C@]1(CO)O[C@@H](n2ccc3c(N)nc(Cl)nc32)C[C@@H]1OC(=O)OCc1cccn(C)c1=O [Example 67, (2R,3S,5R)-5-(4-amino-2-chloro-7H-pyrrolo[2,3-d]pyrimidin-7-yl)-2-ethynyl-2-(hydroxymethyl)tetrahydrofuran-3-yl ((1-methyl-2-oxo-1,2-dihydropyridin-3-yl)methyl) carbonate]",6.4
2,C#C[C@]1(COC(=O)OCCCc2ccccc2)O[C@@H](n2ccc3c(N)nc(Cl)nc32)C[C@@H]1O [Example 128],3
3,"C#C[C@]1(CO)O[C@@H](n2ccc3c(NC(=O)CCC45CC6CC(CC(C6)C4)C5)nc(Cl)nc32)C[C@@H]1O [Example 69, 3-(adamantan-1-yl)-N-(2-chloro-7-((2R,4S,5R)-5-ethynyl-4-hydroxy-5-(hydroxymethyl)tetrahydrofuran-2-yl)-7H-pyrrolo[2,3-d]pyrimidin-4-yl)propanamide]",10
4,C#C[C@]1(COC(=O)OCc2cccnc2)O[C@@H](n2ccc3c(N)nc(Cl)nc32)C[C@@H]1OC(=O)OCc1ccccc1 [Example 85],3.2
5,C#C[C@]1(COC(=O)CCCCC)O[C@@H](n2ccc3c(N)nc(Cl)nc32)C[C@@H]1OC(=O)OCc1cccnc1 [Example 192],6.5
6,C#C[C@]1(COC(=O)CC23CC(C2)C3)O[C@@H](n2ccc3c(N)nc(Cl)nc32)C[C@@H]1OC(=O)OCCC12CC3CC(CC(C3)C1)C2 [Example 108],20
7,C#C[C@]1(COC(=O)OCc2cccn(C)c2=O)O[C@@H](n2ccc3c(N)nc(Cl)nc32)C[C@@H]1O [Example 208],4.4
8,C#C[C@]1(COC(=O)C23CC(C2)C3)O[C@@H](n2ccc3c(N)nc(Cl)nc32)C[C@@H]1OC(=O)OCCC12CC3CC(CC(C3)C1)C2 [Example 109],21
9,C#C[C@]1(CO)O[C@@H](n2ccc3c(N)nc(Cl)nc32)C[C@@H]1OC(=O)OCc1ccc[nH]c1=O [Example 201],2.6
10,C#C[C@]1(COC(=O)C23CC(C2)C3)O[C@@H](n2ccc3c(N)nc(Cl)nc32)C[C@@H]1OC(=O)C12CC(C1)C2 [Example 104],4.1
11,C#C[C@]1(CO)O[C@@H](n2ccc3c(N)nc(Cl)nc32)C[C@@H]1OC(=O)OCC12CC(C1)C2 [Example 110],2.7
12,C#C[C@]1(CO)O[C@@H](n2ccc3c(NC(=O)OCCC45CC6CC(CC(C6)C4)C5)nc(Cl)nc32)C[C@@H]1O [Example 148],339
13,C#C[C@]1(COC(=O)CC(C)(C)c2c(C)cc(C)cc2OC(C)=O)O[C@@H](n2ccc3c(N)nc(Cl)nc32)C[C@@H]1O [Example 183],2.7
14,C#C[C@]1(COC(=O)OCc2cccnc2)O[C@@H](n2ccc3c(N)nc(Cl)nc32)C[C@@H]1OC(=O)OCC [Example 172],25
15,C#C[C@]1(CO)O[C@@H](n2ccc3c(N)nc(Cl)nc32)C[C@@H]1OC(=O)OCc1cc[nH]c(=O)c1 [Example 159],14
16,C#C[C@]1(COC(=O)O[C@@H](C)c2ccccc2)O[C@@H](n2ccc3c(N)nc(Cl)nc32)C[C@@H]1O [Example 127],3.8
17,C#C[C@]1(CO)O[C@@H](n2ccc3c(NC(=O)OCCc4ccccc4)nc(Cl)nc32)C[C@@H]1O [Example 149],429
18,C#C[C@]1(COC(=O)Cc2ccc(Cl)cc2)O[C@@H](n2ccc3c(NC(=O)CCc4ccccc4)nc(Cl)nc32)C[C@@H]1O [Example 147],55
19,C#C[C@]1(CO)O[C@@H](n2ccc3c(N)nc(Cl)nc32)C[C@@H]1OCOC(=O)C(C)C [Example 140],5
20,C#C[C@]1(CO)O[C@@H](n2ccc3c(N)nc(Cl)nc32)C[C@@H]1OCOC(=O)c1ccccc1 [Example 139],3.6
21,C#C[C@]1(COC(=O)C23CC(C2)C3)O[C@@H](n2ccc3c(N)nc(Cl)nc32)C[C@@H]1O [Example 106],2.5

row,Compound,IC50 [nM]
1,"C#C[C@]1(CO)O[C@@H](n2ccc3c(NC(=O)CCCCCCCCCCCCC)nc(Cl)nc32)C[C@@H]1O [Example 70, N-(2-chloro-7-((2R,4S,5R)-5-ethynyl-4-hydroxy-5-(hydroxymethyl)tetrahydrofuran-2-yl)-7H-pyrrolo[2,3-d]pyrimidin-4-yl)tetradecanamide]",58
2,C#C[C@]1(COC(=O)OCc2ccccc2)O[C@@H](n2ccc3c(N)nc(Cl)nc32)C[C@@H]1OC(=O)OCCC12CC3CC(CC(C3)C1)C2 [Example 215],44
3,C#C[C@]1(CO)O[C@@H](n2ccc3c(N)nc(Cl)nc32)C[C@@H]1OC(=O)OC [Example 157],20
4,C#C[C@]1(COC(=O)[C@H](C)c2ccccc2)O[C@@H](n2ccc3c(N)nc(Cl)nc32)C[C@@H]1OC(=O)[C@H](C)c1ccccc1 [Example 98],91
5,C#C[C@]1(COC(=O)OCC23CC(C2)C3)O[C@@H](n2ccc3c(N)nc(Cl)nc32)C[C@@H]1OC(=O)OCCC12CC3CC(CC(C3)C1)C2 [Example 175],34
6,C#C[C@]1(CO)O[C@@H](n2ccc3c(NC(=O)OCCCCCCCC)nc(Cl)nc32)C[C@@H]1O [Example 223],411
7,C#C[C@]1(CO)O[C@@H](n2ccc3c(N(C(=O)OCCCCCC)C(=O)OCCCCCC)nc(Cl)nc32)C[C@@H]1O [Example 222],1370
8,C#C[C@]1(COC(=O)OCc2ccc[nH]c2=O)O[C@@H](n2ccc3c(N)nc(Cl)nc32)C[C@@H]1OC(=O)OCc1ccccc1 [Example 94],6.1
9,C#C[C@]1(COC(=O)CC23CC(C2)C3)O[C@@H](n2ccc3c(N)nc(Cl)nc32)C[C@@H]1OC(=O)CC12CC(C1)C2 [Example 95],8.6
10,C#C[C@]1(COC(=O)CCCCCCCCCCCCCCCCCCC)O[C@@H](n2ccc3c(N)nc(Cl)nc32)C[C@@H]1O [Example 91],135
11,C#C[C@]1(COCOC(=O)c2ccccc2)O[C@@H](n2ccc3c(N)nc(Cl)nc32)C[C@@H]1OCOC(=O)c1ccccc1 [Example 137],4.5
12,C#C[C@]1(COC(=O)OCCCCCCCCCC)O[C@@H](n2ccc3c(N)nc(Cl)nc32)C[C@@H]1OC(=O)OCCCCCCCCCC [Example 92],3510
13,C#C[C@]1(COCOC(=O)c2ccccc2)O[C@@H](n2ccc3c(N)nc(Cl)nc32)C[C@@H]1OC(=O)c1ccccc1 [Example 138],41
14,C#C[C@]1(CO)O[C@@H](n2ccc3c(N)nc(Cl)nc32)C[C@@H]1OC(=O)OCCC12CC(C1)C2 [Example 111],5.2
15,C#C[C@]1(COC(=O)OCc2ccccc2)O[C@@H](n2ccc3c(NC(=O)CCc4ccccc4)nc(Cl)nc32)C[C@@H]1O [Example 202],146
16,C#C[C@]1(COC(=O)OCc2cc[nH]c(=O)c2)O[C@@H](n2ccc3c(N)nc(Cl)nc32)C[C@@H]1O [Example 130],2.9
17,C#C[C@]1(CO)O[C@@H](n2ccc3c(N)nc(Cl)nc32)C[C@@H]1OC(=O)CCCCCCCCCCCCCCC [Example 83],25
18,C#C[C@]1(COCOC(=O)Oc2ccccc2)O[C@@H](n2ccc3c(N)nc(Cl)nc32)C[C@@H]1O [Example 135],3.8
19,C#C[C@]1(COC(=O)CCCCCCCC)O[C@@H](n2ccc3c(N)nc(Cl)nc32)C[C@@H]1O [Example 118],4.3
20,C#C[C@]1(COC(=O)OCc2cccnc2)O[C@@H](n2ccc3c(N)nc(Cl)nc32)C[C@@H]1OC(=O)OCc1cccnc1 [Example 164],13
21,C#C[C@]1(CO)O[C@@H](n2ccc3c(NC(=O)CCCc4ccccc4)nc(Cl)nc32)C[C@@H]1O [Example 198],63
